Here are results for 13 compounds from BindingDB's records for doi:10.3109/14756366.2012.663363 (Sun Yat-Sen University, 2013).

Molecules are shown by their SMILES.

The target in assay [1] is Carboxylic ester hydrolase (Equus caballus, UniProt Q9N1N9). The assay is described as follows: In Vitro AChE and BuChE Inhibition Assays. Conditions: pH 8. As to the method:
(§1) Enzyme solutions were prepared to give 2 units/mL in 2 mL aliquots. […] The substrate was added to the assay medium containing enzyme, buffer and DTNB with inhibitor after 15 min of incubation time.

The target in another assay is Acetylcholinesterase (Electrophorus electricus, UniProt O42275). As to the kind of experiment: In Vitro AChE and BuChE Inhibition Assays. Conditions: pH 8. As to the method:
as §1

Chain of Carboxylic ester hydrolase (Q9N1N9 whole entry): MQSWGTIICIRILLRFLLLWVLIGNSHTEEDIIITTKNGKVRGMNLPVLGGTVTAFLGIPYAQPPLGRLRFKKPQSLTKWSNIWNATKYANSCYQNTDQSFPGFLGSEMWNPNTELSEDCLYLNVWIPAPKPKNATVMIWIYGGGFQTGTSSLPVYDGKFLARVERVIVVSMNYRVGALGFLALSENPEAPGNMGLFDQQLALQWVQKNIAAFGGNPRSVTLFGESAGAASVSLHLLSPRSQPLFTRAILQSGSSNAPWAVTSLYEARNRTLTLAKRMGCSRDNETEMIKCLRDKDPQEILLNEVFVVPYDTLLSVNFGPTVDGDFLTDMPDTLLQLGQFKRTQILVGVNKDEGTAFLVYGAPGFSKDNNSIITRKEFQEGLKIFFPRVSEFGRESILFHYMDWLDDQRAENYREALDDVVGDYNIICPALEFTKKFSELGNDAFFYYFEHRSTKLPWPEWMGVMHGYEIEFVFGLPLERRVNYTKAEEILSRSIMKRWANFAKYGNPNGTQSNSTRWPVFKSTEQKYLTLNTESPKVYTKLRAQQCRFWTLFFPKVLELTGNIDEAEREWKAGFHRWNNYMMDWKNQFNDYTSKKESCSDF
Chain of Acetylcholinesterase (O42275 whole entry): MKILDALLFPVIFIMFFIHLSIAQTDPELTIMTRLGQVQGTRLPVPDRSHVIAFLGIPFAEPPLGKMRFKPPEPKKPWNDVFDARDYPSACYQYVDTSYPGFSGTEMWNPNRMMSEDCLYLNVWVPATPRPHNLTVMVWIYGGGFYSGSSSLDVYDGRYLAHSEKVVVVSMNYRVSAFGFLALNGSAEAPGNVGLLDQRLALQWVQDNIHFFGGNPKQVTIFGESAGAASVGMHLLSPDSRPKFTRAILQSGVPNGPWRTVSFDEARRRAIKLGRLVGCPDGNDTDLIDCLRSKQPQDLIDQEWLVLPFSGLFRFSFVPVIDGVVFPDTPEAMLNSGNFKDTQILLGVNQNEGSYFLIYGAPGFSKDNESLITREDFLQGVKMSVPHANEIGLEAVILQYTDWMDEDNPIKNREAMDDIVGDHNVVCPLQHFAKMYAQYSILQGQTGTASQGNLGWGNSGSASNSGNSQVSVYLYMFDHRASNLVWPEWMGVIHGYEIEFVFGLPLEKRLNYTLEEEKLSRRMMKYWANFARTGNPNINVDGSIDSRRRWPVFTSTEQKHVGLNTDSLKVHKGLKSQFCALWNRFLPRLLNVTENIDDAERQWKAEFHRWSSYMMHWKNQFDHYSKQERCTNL

With `CCN(CC)CCC(=O)Nc1ccc2nc(-c3cc4ccccc4[nH]3)[nH]c(=O)c2c1` [N-(2-(1H-indol-2-yl)-4-oxo-3,4-dihydroquinazolin-6-yl)-3-(diethylamino)propanamide (3f)], the IC50 in assay [1] is 2.43 µM; against Acetylcholinesterase, 0.276 µM.

Turning to `CN1CCN(CCC(=O)Nc2ccc3nc(-c4cc5ccccc5[nH]4)[nH]c(=O)c3c2)CC1` [N-(2-(1H-indol-2-yl)-4-oxo-3,4-dihydroquinazolin-6-yl)-3-(4-methylpiperazin-1-yl)propanamide (3j)], the IC50 (in assay [1]; on Acetylcholinesterase) was more than 10 µM in each case.

Turning to `O=C(CCN1CCCCC1)Nc1ccc2nc(-c3cc4ccccc4[nH]3)[nH]c(=O)c2c1` [N-(2-(1H-indol-2-yl)-4-oxo-3,4-dihydroquinazolin-6-yl)-3-(piperidin-1-yl)propanamide (3h)], the IC50 in assay [1] was determined as 7.32 µM; against Acetylcholinesterase, 0.021 µM.

As to `CN1CCN(CC(=O)Nc2ccc3nc(-c4cc5ccccc5[nH]4)[nH]c(=O)c3c2)CC1` [N-(2-(1H-indol-2-yl)-4-oxo-3,4-dihydroquinazolin-6-yl)-2-(4-methylpiperazin-1-yl)acetamide (3e)], the IC50 (in assay [1]; on Acetylcholinesterase) was more than 10 µM throughout.

Take `O=C(CN1CCCCC1)Nc1ccc2nc(-c3cc4ccccc4[nH]3)[nH]c(=O)c2c1` [N-(2-(1H-indol-2-yl)-4-oxo-3,4-dihydroquinazolin-6-yl)-2-(piperidin-1-yl)acetamide (3c)]: the IC50 was 10.2 µM in assay [1] and 0.148 µM on Acetylcholinesterase.

On to `CCN(CC)CCCNc1nc(-c2cc3ccccc3[nH]2)nc2ccccc12` [N1-(2-(1H-indol-2-yl)quinazolin-4-yl)-N3,N3-diethylpropane-1,3-diamine (9b)], for which the IC50 (in assay [1]; at Acetylcholinesterase) was more than 10 µM each time.

On to `CCN(CC)CC(=O)Nc1ccc2nc(-c3cc4ccccc4[nH]3)[nH]c(=O)c2c1` [N-(2-(1H-indol-2-yl)-4-oxo-3,4-dihydroquinazolin-6-yl)-2-(diethylamino)acetamide (3a)], for which the values for the IC50 (in assay [1]; against Acetylcholinesterase) were 14.8 µM and 0.503 µM, respectively.

Turning to `CN(C)CCCNc1nc(-c2cc3ccccc3[nH]2)nc2ccccc12` [N1-(2-(1H-indol-2-yl)quinazolin-4-yl)-N3,N3-dimethylpropane-1,3-diamine (9a)], the IC50 (in assay [1]; at Acetylcholinesterase) was more than 10 µM in each case.

As for `O=C(CCN1CCCC1)Nc1ccc2nc(-c3cc4ccccc4[nH]3)[nH]c(=O)c2c1` [N-(2-(1H-indol-2-yl)-4-oxo-3,4-dihydroquinazolin-6-yl)-3-(pyrrolidin-1-yl)propanamide (3g)], the results for the IC50 (in assay [1]; against Acetylcholinesterase) were 0.403 µM and 0.1 µM, respectively.

With `O=c1[nH]c(-c2cc3ccccc3[nH]2)nc2ccccc12` [2-(2-Indolyl-)-4(3H)-quinazolines (2IQ)], the IC50 (in assay [1]; against Acetylcholinesterase) was more than 10 µM throughout.

Regarding `O=C(CCN1CCOCC1)Nc1ccc2nc(-c3cc4ccccc4[nH]3)[nH]c(=O)c2c1` [N-(2-(1H-indol-2-yl)-4-oxo-3,4-dihydroquinazolin-6-yl)-3-morpholinopropanamide (3i)], the IC50 was found to be 51.6 µM in assay [1] and 1.26 µM on Acetylcholinesterase.

`O=C(CN1CCOCC1)Nc1ccc2nc(-c3cc4ccccc4[nH]3)[nH]c(=O)c2c1` [N-(2-(1H-indol-2-yl)-4-oxo-3,4-dihydroquinazolin-6-yl)-2-morpholinoacetamide (3d)]: the values for the 50% inhibitory concentration (IC50) (in assay [1]; against Acetylcholinesterase) were 32.2 µM and 2.02 µM, respectively.

As to `O=C(CN1CCCC1)Nc1ccc2nc(-c3cc4ccccc4[nH]3)[nH]c(=O)c2c1` [N-(2-(1H-indol-2-yl)-4-oxo-3,4-dihydroquinazolin-6-yl)-2-(pyrrolidin-1-yl)acetamide (3b)], the IC50 is 3.1 µM in assay [1] and 0.327 µM against Acetylcholinesterase.

The term IC50 denotes the concentration needed to halve the response being measured. A low value points to greater potency in that assay.
